Experimental data published in patent US9744211B2, “Uses of BT lipopeptides as therapeutics for obesity and related diseases” (MYGALAXY LIMITED COMPANY, priority 2012, dated 2017).

System: isolated chicken heterophils
Experiment: PMA-stimulated oxidative burst of heterophils in vitro (BT priming assay, with or without anti-TLR2 antibody blocking)
Type: cell-based
Conditions: Group 2: PMA stimulation only, no BT
Description: However, the in vitro priming assay provides a useful tool for probing possible signaling pathway involved in BT-mediated innate immunomodulation. Since TLRs are conserved receptors playing key roles in innate immunity (Farnell et al., 2003) and TLR2 is the only TLR that has lipopeptide agonists, the same in vitro BT priming assay (Kogut et al., 2012) was employed to investigate whether TLR2 can function as a receptor for BT lipopeptides.
Goat polyclonal antibodies raised against human TLR2 were purchased from Santa Cruz Biotechnology Lab (Santa Cruz, Calif.). For TLR2-blocking, isolated chicken heterophils and the antibodies (2.0 μg/ml) were incubated, prior to the treatments of BT and/or PMA, at 39° C. for 30 minutes.

SMILES: CCCCCCCCCCCCCC(=O)O[C@@H]1[C@@H](C)[C@@]2(O)[C@@H](C=C(CO)C[C@]3(O)C(=O)C(C)=C[C@@H]23)[C@@H]2C(C)(C)[C@]12OC(C)=O [PMA]
- Oxidative burst (RFU + SE) in 10^3: 11.235 ± 0.125 RFU in 10^3
